{
  "source": "patent US10004697B2",
  "about": "“In vivo sperm selection for treating male infertility” (M Pharmaceutical USA Inc., priority 2016, dated 2018)",
  "test_system": "women",
  "experiment": "Topical menthol applied to the vulva: increase of vaginal lubrication in women",
  "format": "in vivo, human",
  "conditions": "applied to the vulva (including the clitoris)",
  "excerpt": "Abnormal sperm quality in combination with inadequate vaginal lubrication can cause infertility. The menthol-stimulated vaginal plasma transudate 30 that is generated by use of the inventive method compensates for lubrication insufficiency that may be present in the female sexual partner of the infertile male. […] Since most infertility is a combination of female and male factors, the production of this vaginal transudate 30 can aid conception rates of both infertile males and females. […] Therefore the sperm, even if they somehow are able to be capacitated, have little or no protective and nourishing substrate in which they can swim up through the external os 24 and into the cervical canal 21. The odds of fertilization are thus extremely low.",
  "data": [
    {"smiles": "CC1CCC(C(C)C)C(O)C1", "note": "(centres unmarked) [menthol]", "values": [
      {"measurement": "women in whom lubrication is increased", "setting": "all women", "value": 80, "unit": "%"},
      {"measurement": "women in whom lubrication is increased", "setting": "women over 35", "value": 90, "unit": "%"}
    ]}
  ]
}
